Reference: the NIST ThermoML archive (doi:10.1016/j.jct.2013.08.034)

Assay: xn = mol fraction of the nth substance listed
Details: 101 kPa, Liquid; for mass density: Vibrating tube method; for electrical conductivity: Conductivity Meter Jenco 3107; for viscosity: Cone and plate viscometry

CC1COC(=O)O1 (centres undefined) [4-methyl-1,3-dioxolan-2-one] + CCCC[n+]1ccn(C)c1.O=S(=O)([N-]S(=O)(=O)C(F)(F)F)C(F)(F)F
Details	electrical conductivity [S/m]	mass density [kg/m3]	viscosity [mPa·s]
308.15 K, x2 = 0.7989	–	1410.26	–
308.15 K, x2 = 0.898	–	1418.04	–
313.15 K, x2 = 0	–	–	2.05
313.15 K, x2 = 0.0146	–	1194.33	–
313.15 K, x2 = 0.0296	–	1205.22	–
313.15 K, x2 = 0.0453	–	1215.97	–
313.15 K, x2 = 0.0502	1.14	–	–
313.15 K, x2 = 0.0616	–	1226.46	–
313.15 K, x2 = 0.0732	–	1233.52	–
313.15 K, x2 = 0.0997	–	1248.42	–
313.15 K, x2 = 0.1	–	–	3.21
313.15 K, x2 = 0.1004	1.44	–	–
313.15 K, x2 = 0.2001	1.66	–	–
313.15 K, x2 = 0.2002	–	–	4.59
313.15 K, x2 = 0.2004	–	1293.64	–
313.15 K, x2 = 0.3002	1.52	–	–
313.15 K, x2 = 0.3007	–	–	6.34
313.15 K, x2 = 0.3081	–	1328.25	–
313.15 K, x2 = 0.3998	–	–	8.29
313.15 K, x2 = 0.4004	–	1350.46	–
313.15 K, x2 = 0.4005	1.4	–	–
313.15 K, x2 = 0.5004	–	–	10.77
313.15 K, x2 = 0.5007	1.25	–	–
313.15 K, x2 = 0.5021	–	1369.47	–
313.15 K, x2 = 0.5839	–	1381.78	–
313.15 K, x2 = 0.6002	–	–	13.57
313.15 K, x2 = 0.6003	1.11	–	–
313.15 K, x2 = 0.6902	–	1394.71	–
313.15 K, x2 = 0.6979	–	–	16.55
313.15 K, x2 = 0.6989	0.971	–	–
313.15 K, x2 = 0.7989	–	1405.28	–
313.15 K, x2 = 0.8001	0.85	–	–
313.15 K, x2 = 0.8015	–	–	20.47
313.15 K, x2 = 0.8959	0.73	–	23.63
313.15 K, x2 = 0.898	–	1413.08	–
318.15 K, x2 = 0	–	–	1.9
318.15 K, x2 = 0.0146	–	1188.81	–
318.15 K, x2 = 0.0296	–	1199.72	–
318.15 K, x2 = 0.0453	–	1210.48	–
318.15 K, x2 = 0.0502	1.23	–	–
318.15 K, x2 = 0.0616	–	1220.94	–
318.15 K, x2 = 0.0732	–	1228.04	–
318.15 K, x2 = 0.0997	–	1243.05	–
318.15 K, x2 = 0.1	–	–	2.89
318.15 K, x2 = 0.1004	1.59	–	–
318.15 K, x2 = 0.2001	1.81	–	–
318.15 K, x2 = 0.2002	–	–	4.17
318.15 K, x2 = 0.2004	–	1288.34	–
318.15 K, x2 = 0.3002	1.68	–	–
318.15 K, x2 = 0.3007	–	–	5.68
318.15 K, x2 = 0.3081	–	1323.02	–
318.15 K, x2 = 0.3998	–	–	7.31
318.15 K, x2 = 0.4004	–	1345.37	–
318.15 K, x2 = 0.4005	1.57	–	–
318.15 K, x2 = 0.5004	–	–	9.37
318.15 K, x2 = 0.5007	1.41	–	–
318.15 K, x2 = 0.5021	–	1364.43	–
318.15 K, x2 = 0.5839	–	1376.72	–
318.15 K, x2 = 0.6002	–	–	11.75
318.15 K, x2 = 0.6003	1.26	–	–
318.15 K, x2 = 0.6902	–	1389.72	–
318.15 K, x2 = 0.6979	–	–	14.29
318.15 K, x2 = 0.6989	1.11	–	–
318.15 K, x2 = 0.7989	–	1400.29	–
318.15 K, x2 = 0.8001	0.961	–	–
318.15 K, x2 = 0.8015	–	–	17.5
318.15 K, x2 = 0.8959	0.828	–	20.04
318.15 K, x2 = 0.898	–	1408.1	–
323.15 K, x2 = 0	–	–	1.78
323.15 K, x2 = 0.0146	–	1183.28	–
323.15 K, x2 = 0.0296	–	1194.23	–
323.15 K, x2 = 0.0453	–	1204.99	–
323.15 K, x2 = 0.0502	1.32	–	–
323.15 K, x2 = 0.0616	–	1215.52	–
323.15 K, x2 = 0.0732	–	1222.56	–
323.15 K, x2 = 0.0997	–	1237.51	–
323.15 K, x2 = 0.1	–	–	2.68
323.15 K, x2 = 0.1004	1.74	–	–
323.15 K, x2 = 0.2001	1.97	–	–
323.15 K, x2 = 0.2002	–	–	3.81
323.15 K, x2 = 0.2004	–	1283	–
323.15 K, x2 = 0.3002	1.85	–	–
323.15 K, x2 = 0.3007	–	–	5.14
323.15 K, x2 = 0.3081	–	1317.8	–
323.15 K, x2 = 0.3998	–	–	6.58
323.15 K, x2 = 0.4004	–	1340.2	–
323.15 K, x2 = 0.4005	1.74	–	–
323.15 K, x2 = 0.5004	–	–	8.34
323.15 K, x2 = 0.5007	1.57	–	–
323.15 K, x2 = 0.5021	–	1359.32	–
323.15 K, x2 = 0.5839	–	1371.65	–
323.15 K, x2 = 0.6002	–	–	10.31
323.15 K, x2 = 0.6003	1.41	–	–
323.15 K, x2 = 0.6902	–	1384.62	–
323.15 K, x2 = 0.6979	–	–	12.41
323.15 K, x2 = 0.6989	1.25	–	–
323.15 K, x2 = 0.7989	–	1395.23	–
323.15 K, x2 = 0.8001	1.1	–	–
323.15 K, x2 = 0.8015	–	–	15.15
323.15 K, x2 = 0.8959	0.93	–	17.34
323.15 K, x2 = 0.898	–	1403.08	–
328.15 K, x2 = 0	–	–	1.63
328.15 K, x2 = 0.0502	1.41	–	–
328.15 K, x2 = 0.1	–	–	2.47
328.15 K, x2 = 0.1004	1.89	–	–
328.15 K, x2 = 0.2001	2.12	–	–
328.15 K, x2 = 0.2002	–	–	3.45
328.15 K, x2 = 0.3002	2.06	–	–
328.15 K, x2 = 0.3007	–	–	4.68
328.15 K, x2 = 0.3998	–	–	5.94
328.15 K, x2 = 0.4005	1.92	–	–
328.15 K, x2 = 0.5004	–	–	7.41
328.15 K, x2 = 0.5007	1.74	–	–
328.15 K, x2 = 0.6002	–	–	9.19
328.15 K, x2 = 0.6003	1.57	–	–
328.15 K, x2 = 0.6979	–	–	11
328.15 K, x2 = 0.6989	1.4	–	–
328.15 K, x2 = 0.8001	1.25	–	–
328.15 K, x2 = 0.8015	–	–	13.3
328.15 K, x2 = 0.8959	1.07	–	15.12
333.15 K, x2 = 0	–	–	1.54
333.15 K, x2 = 0.1	–	–	2.31
333.15 K, x2 = 0.2002	–	–	3.22
333.15 K, x2 = 0.3007	–	–	4.26
333.15 K, x2 = 0.3998	–	–	5.37
333.15 K, x2 = 0.5004	–	–	6.66
333.15 K, x2 = 0.6002	–	–	8.17
333.15 K, x2 = 0.6979	–	–	9.7
333.15 K, x2 = 0.8015	–	–	11.7
333.15 K, x2 = 0.8959	–	–	13.26
